This note sets out measurements from patent publication US7951829B2, “Benzimidazole modulators of VR1” (Janssen Pharmaceutica NV, priority 2006, dated 2011).

The target of the assay is T1, hVR1 (Homo sapiens, UniProt Q8NER1).
T1 construct: expressed in transfected cells; host or cells: HEK293
Kind of assay: Human VR1 (hVR1) Functional Assay (FLIPR intracellular calcium, capsaicin challenge). The assay is classed as cell-based. The note with it: capsaicin 0.030 μM, HEK293 cells expressing hVR1; for inhibition at 1 µM: test concentration 1 μM. (In general: Calcium assays in cells follow changes in intracellular calcium, usually with a dye or a luminescent sensor.)

T1 sequence (Q8NER1 whole entry): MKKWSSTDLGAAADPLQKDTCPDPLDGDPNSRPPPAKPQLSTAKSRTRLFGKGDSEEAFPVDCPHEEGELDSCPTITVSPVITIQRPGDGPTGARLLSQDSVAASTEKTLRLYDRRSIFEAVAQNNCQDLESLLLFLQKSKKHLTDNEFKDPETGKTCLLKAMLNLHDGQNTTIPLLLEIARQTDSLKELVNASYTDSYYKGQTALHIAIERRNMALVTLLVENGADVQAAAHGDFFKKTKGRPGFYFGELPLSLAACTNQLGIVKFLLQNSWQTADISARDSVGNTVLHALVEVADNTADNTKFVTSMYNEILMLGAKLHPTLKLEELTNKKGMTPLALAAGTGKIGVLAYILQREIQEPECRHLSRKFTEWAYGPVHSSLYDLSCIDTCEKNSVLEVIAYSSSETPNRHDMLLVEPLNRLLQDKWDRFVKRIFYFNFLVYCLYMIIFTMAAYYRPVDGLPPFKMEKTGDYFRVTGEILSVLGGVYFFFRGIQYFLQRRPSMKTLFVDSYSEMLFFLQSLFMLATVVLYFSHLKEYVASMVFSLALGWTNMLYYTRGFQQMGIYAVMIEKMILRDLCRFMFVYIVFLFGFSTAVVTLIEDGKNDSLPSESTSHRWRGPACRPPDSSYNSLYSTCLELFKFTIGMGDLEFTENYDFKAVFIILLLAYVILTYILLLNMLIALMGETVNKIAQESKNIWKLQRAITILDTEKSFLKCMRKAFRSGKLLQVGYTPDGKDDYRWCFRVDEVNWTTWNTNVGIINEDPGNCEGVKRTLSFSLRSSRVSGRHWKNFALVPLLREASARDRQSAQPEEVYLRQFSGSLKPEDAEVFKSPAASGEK

The term IC50 denotes the midpoint of a concentration-inhibition curve. As to `Oc1ccccc1-c1cc2nc(/C=C/c3ccc(C(F)(F)F)cc3)[nH]c2cc1Cl` [Cpd 68, (E)-2-{6-chloro-2-[2-(4-trifluoromethyl-phenyl)-vinyl]-1H-benzimidazol-5-yl}-phenol], the concentration for half-maximal inhibition (IC50) is 329 nM.

The inhibition is the change of the read-out against control, counted positive when it falls. As for `CNS(=O)(=O)c1ccccc1-c1ccc2[nH]c(/C=C/c3ccc(F)c(F)c3)nc2c1` [Cpd 329, (E)-2-{2-[2-(3,4-difluoro-phenyl)-vinyl]-1H-benzimidazol-5-yl}-N-methyl-benzenesulfonamide], the concentration for half-maximal inhibition (IC50) came to 27 nM and the inhibition at 1 µM was 98%.

Take `CC(C)c1ccc(/C=C/c2nc3cc(-c4ccccc4S(N)(=O)=O)ccc3[nH]2)cc1` [Cpd 429, (E)-2-{2-[2-(4-isopropyl-phenyl)-vinyl]-1H-benzimidazol-5-yl}-benzenesulfonamide]: the half-inhibitory concentration (IC50) was 6 nM and the inhibition at 1 µM turned out to be 98%.

For the compound `NS(=O)(=O)c1ccccc1-c1ccc2[nH]c(/C=C/c3ccccc3)nc2c1` [Cpd 426, (E)-2-(2-styryl-1H-benzimidazol-5-yl)-benzenesulfonamide], the IC50 is 22 nM and the inhibition at 1 µM came out at 99%.

On to `O=C(Nc1ccccc1-c1ccc2[nH]c(/C=C/c3ccc(C(F)(F)F)cc3)nc2c1)C(F)(F)F` [Cpd 458, (E)-2,2,2-trifluoro-N-(2-{2-[2-(4-trifluoromethyl-phenyl)-vinyl]-1H-benzimidazol-5-yl}-phenyl)-acetamide], for which the inhibition at 1 µM is 15%.

As to `NC(=O)c1ccccc1-c1ccc2[nH]c(/C=C/c3ccc(S(=O)(=O)C(F)(F)F)cc3)nc2c1` [Cpd 44, (E)-2-{2-[2-(4-trifluoromethanesulfonyl-phenyl)-vinyl]-1H-benzimidazol-5-yl}-benzamide], the half-inhibitory concentration (IC50) came to 300 nM and the inhibition at 1 µM came to 95%.

In the case of `NS(=O)(=O)Nc1ccccc1-c1ccc2[nH]c(/C=C/c3ccc(C(F)(F)F)cc3)nc2c1` [Cpd 470, (E)-5-(2-aminosulfonylamino-phenyl)-2-[2-(4-trifluoromethyl-phenyl)-vinyl]-1H-benzimidazole], the concentration for half-maximal inhibition (IC50) is 45 nM and the inhibition at 1 µM was 97%.

Consider `NS(=O)(=O)c1ccccc1-c1ccc2[nH]c(CCc3cccc(C(F)(F)F)c3)nc2c1` [Cpd 175, 2-{2-[2-(3-trifluoromethyl-phenyl)-ethyl]-1H-benzimidazol-5-yl}-benzenesulfonamide], for which the IC50 was 16 nM and the inhibition at 1 µM was determined as 100%.

For `NS(=O)(=O)c1ccccc1-c1ccc2[nH]c(/C=C/c3ccc(SC(F)(F)F)cc3)nc2c1` [Cpd 380, (E)-2-{2-[2-(4-trifluoromethylsulfanyl-phenyl)-vinyl]-1H-benzimidazol-5-yl}-benzenesulfonamide], the IC50 was found to be 12 nM and the inhibition at 1 µM came to 99%.

With `NS(=O)(=O)c1ccccc1-c1ccc2[nH]c(/C=C/c3cccc(Cl)c3F)nc2c1` [Cpd 431, (E)-2-{2-[2-(3-chloro-2-fluoro-phenyl)-vinyl]-1H-benzimidazol-5-yl}-benzenesulfonamide], the IC50 was determined as 35 nM and the inhibition at 1 µM was found to be 97%.

`CNS(=O)(=O)c1ccccc1-c1ccc2[nH]c(/C=C/c3c(F)cccc3F)nc2c1` [Cpd 327, (E)-2-{2-[2-(2,6-difluoro-phenyl)-vinyl]-1H-benzimidazol-5-yl}-N-methyl-benzenesulfonamide]: the half-maximal inhibitory concentration (IC50) worked out at 343 nM and the inhibition at 1 µM is 77%.

With `NS(=O)(=O)c1ccccc1-c1ccc2[nH]c(CCc3cccc(OC(F)(F)F)c3)nc2c1` [Cpd 391, 2-{2-[2-(3-trifluoromethoxy-phenyl)-ethyl]-1H-benzimidazol-5-yl}-benzenesulfonamide], the IC50 worked out at 8 nM and the inhibition at 1 µM came out at 95%.

Take `CC(=O)Nc1ccccc1-c1ccc2[nH]c(/C=C/c3ccc(F)c(F)c3)nc2c1` [Cpd 24, (E)-N-(2-{2-[2-(3,4-difluoro-phenyl)-vinyl]-1H-benzimidazol-5-yl}-phenyl)-acetamide]: the inhibition at 1 µM worked out at 8%.

Consider `CC(C)(C)OC(=O)Nc1ccccc1-c1ccc2[nH]c(/C=C/c3ccc(C(F)(F)F)cc3)nc2c1` [Cpd 479, (E)-(2-{2-[2-(4-trifluoromethyl-phenyl)-vinyl]-1H-benzimidazol-5-yl}-phenyl)-carbamic acid tert-butyl ester], for which the inhibition at 1 µM came out at 12%.

Consider `CCOc1ccc(/C=C/c2nc3cc(-c4ccccc4S(N)(=O)=O)ccc3[nH]2)cc1` [Cpd 440, (E)-2-{2-[2-(4-ethoxy-phenyl)-vinyl]-1H-benzimidazol-5-yl}-benzenesulfonamide], for which the IC50 is 40 nM and the inhibition at 1 µM came out at 98%.

On to `NC(=O)c1ccccc1-c1ccc2[nH]c(/C=C/c3ccc(SC(F)(F)F)cc3)nc2c1` [Cpd 38, (E)-2-{2-[2-(4-trifluoromethylsulfanyl-phenyl)-vinyl]-1H-benzimidazol-5-yl}-benzamide], for which the IC50 came to 270 nM and the inhibition at 1 µM came to 89%.

Consider `CC(=O)Nc1ccc(-c2ccc3[nH]c(/C=C/c4ccc(C(C)(C)C)cc4)nc3c2)cc1` [Cpd 8, (E)-N-(4-{2-[2-(4-tert-butyl-phenyl)-vinyl]-1H-benzimidazol-5-yl}-phenyl)-acetamide], for which the inhibition at 1 µM came to 10%.

For the compound `CNS(=O)(=O)c1ccccc1-c1ccc2[nH]c(/C=C/c3ccc(F)cc3F)nc2c1` [Cpd 349, (E)-2-{2-[2-(2,4-difluoro-phenyl)-vinyl]-1H-benzimidazol-5-yl}-N-methyl-benzenesulfonamide], the half-inhibitory concentration (IC50) came out at 59 nM and the inhibition at 1 µM was 99%.

As to `CS(=O)(=O)Nc1ccccc1-c1ccc2[nH]c(/C=C/c3ccc(Br)cc3)nc2c1` [Cpd 406, (E)-N-(2-{2-[2-(4-bromo-phenyl)-vinyl]-1H-benzimidazol-5-yl}-phenyl)-methanesulfonamide], the 50% inhibitory concentration (IC50) worked out at 170 nM and the inhibition at 1 µM amounted to 97%.

Turning to `NS(=O)(=O)c1ccccc1-c1ccc2[nH]c(/C=C/c3ccc(F)c(C(F)(F)F)c3)nc2c1` [Cpd 369, (E)-2-{2-[2-(4-fluoro-3-trifluoromethyl-phenyl)-vinyl]-1H-benzimidazol-5-yl}-benzenesulfonamide], the IC50 stood at 8 nM and the inhibition at 1 µM worked out at 99%.

In the case of `CS(=O)(=O)Nc1ccccc1-c1ccc2[nH]c(C3CC3c3ccc(C(F)(F)F)cc3)nc2c1` (stereo not shown) [Cpd 467, N-(2-{2-[2-(4-trifluoromethyl-phenyl)-cyclopropyl]-1H-benzimidazol-5-yl}-phenyl)-methanesulfonamide], the IC50 was 182 nM and the inhibition at 1 µM is 86%.

Regarding `CC(C)(O)c1ccccc1-c1ccc2[nH]c(C#Cc3cccc(C(F)(F)F)c3)nc2c1` [Cpd 294, 2-{2-[2-(3-trifluoromethyl-phenylethynyl)-1H-benzimidazol-5-yl]-phenyl}-propan-2-ol], the concentration for half-maximal inhibition (IC50) came out at 9.1 nM and the inhibition at 1 µM amounted to 101%.

Turning to `NS(=O)(=O)c1ccccc1-c1ccc2[nH]c(/C=C/c3ccccc3Cl)nc2c1` [Cpd 365, (E)-2-{2-[2-(2-chloro-phenyl)-vinyl]-1H-benzimidazol-5-yl}-benzenesulfonamide], the IC50 was 17 nM and the inhibition at 1 µM was determined as 99%.

Turning to `NS(=O)(=O)c1ccccc1-c1ccc2[nH]c(C#Cc3cccc(C(F)(F)F)c3)nc2c1` [Cpd 295, 2-[2-(3-trifluoromethyl-phenylethynyl)-1H-benzimidazol-5-yl]-benzenesulfonamide], the IC50 turned out to be 16 nM and the inhibition at 1 µM was determined as 100%.
